# Calls of active or inactive are those of the source. The calls are words filed in the database; no cut-off is given here.
# Assays:
# NCI-H3255 = test: Antiproliferative activity against human NCI-H3255 cells incubated for 72 hrs by CCK8 assay; format: functional, cell-based; settings: NCI-H3255, 72 h
# NCI-H1975 = test: Antiproliferative activity against human NCI-H1975 cells incubated for 72 hrs by CCK8 assay; format: functional, cell-based; settings: NCI-H1975, 72 h
# [1] = molecular target: T1, Microtubule-associated protein 1 light chain 3 beta/Epidermal growth factor receptor (Homo sapiens, UniProt P00533+Q9GZQ8); test: ATTEC activity at LC3B/EGFR in human HCC827 cells assessed as protein degradation by immunoblot analysis; format: cell-based
# [2] = molecular target: T1, Microtubule-associated protein 1 light chain 3 beta/Epidermal growth factor receptor; test: ATTEC activity at LC3B/EGFR in human PC-9 cells assessed as protein degradation; format: cell-based
# [3] = molecular target: T1, Microtubule-associated protein 1 light chain 3 beta/Epidermal growth factor receptor; test: ATTEC activity at LC3B/EGFR in human NCI-H3255 cells assessed as protein degradation; format: cell-based
# [4] = molecular target: T1, Microtubule-associated protein 1 light chain 3 beta/Epidermal growth factor receptor; test: ATTEC activity at LC3B/EGFR in human HCC827 cells assessed as protein degradation; format: cell-based
# [5] = molecular target: T1, Microtubule-associated protein 1 light chain 3 beta/Epidermal growth factor receptor; test: ATTEC activity at LC3B/EGFR in MG132-treated human HCC827 cells assessed as protein degradation at 1 uM incubated for 12 hrs by Western blot analysis; format: cell-based
# [6] = molecular target: T1, Microtubule-associated protein 1 light chain 3 beta/Epidermal growth factor receptor; test: ATTEC activity at LC3B/EGFR in MLN4924-treated human HCC827 cells assessed as protein degradation at 1 uM incubated for 12 hrs by Western blot analysis; format: cell-based
# [7] = molecular target: T1, Microtubule-associated protein 1 light chain 3 beta/Epidermal growth factor receptor; test: ATTEC activity at LC3B/EGFR in Baf-treated human HCC827 cells assessed as protein degradation at 1 uM incubated for 16 hrs by Western blot analysis; format: cell-based
# [8] = molecular target: T1, Microtubule-associated protein 1 light chain 3 beta/Epidermal growth factor receptor; test: ATTEC activity at LC3B/EGFR in chloroquine-treated human HCC827 cells assessed as protein degradation at 1 uM incubated for 16 hrs by Western blot analysis; format: cell-based
# HCC827 = test: Inhibition of colony formation in human HCC827 cells incubated for 2 weeks by crystal violet staining based analysis; format: functional, cell-based; settings: dose 0.1-10 µM
# [9] = Stability in mouse plasma at 1 mg/ml incubated for 160 mins by HPLC analysis; format: ADME, cell-free; settings: read-out: Stability
# [10] = Half life in Sprague-Dawley rat at 20 mg/kg, po; format: ADME, organism-based; settings: in vivo
# PC-9 [11] = test: Anti-tumor activity against human PC-9 cells implanted in NOD-SCID mouse at 5 mg/kg, ip administered every other day for 3 weeks relative to control; format: functional; settings: PC-9, 504 h, read-out: TGI
# PC-9 [12] = test: Anti-tumor activity against human PC-9 cells implanted in NOD-SCID mouse at 10 mg/kg, ip administered every other day for 3 weeks relative to control; format: functional; settings: PC-9, 504 h, read-out: TGI
# [13] = Toxicity in C57BL/6 mouse assessed as tremor upto 200 mg/kg, ip measured after 24 hrs; format: organism-based; settings: in vivo
# [14] = Toxicity in C57BL/6 mouse assessed as histological change in liver upto 200 mg/kg, ip measured after 24 hrs by H and E staining based analysis; format: organism-based; settings: in vivo
# [15] = Toxicity in C57BL/6 mouse assessed as serum ALP level at 100 mg/kg, ip measured after 24 hrs (reference value: 250.654 U/L); format: organism-based; settings: in vivo
# [16] = Toxicity in C57BL/6 mouse assessed as serum ALB level at 100 mg/kg, ip measured after 24 hrs (reference value: 40.01 g/L); format: organism-based; settings: in vivo
# [17] = Toxicity in C57BL/6 mouse assessed as serum TBA level at 100 mg/kg, ip measured after 24 hrs (reference value: 2.674 umol/L); format: organism-based; settings: in vivo
# [18] = Toxicity in C57BL/6 mouse assessed as serum urea level at 100 mg/kg, ip measured after 24 hrs (reference value: 18.934 mmol/L); format: organism-based; settings: in vivo
# [19] = Toxicity in C57BL/6 mouse assessed as serum creatinine level at 100 mg/kg, ip measured after 24 hrs (reference value: 32.258 umol/L); format: organism-based; settings: in vivo
# [20] = Toxicity in C57BL/6 mouse assessed as serum ALT level at 200 mg/kg, ip measured after 24 hrs (reference value: 42.554 U/L); format: organism-based; settings: in vivo
# [21] = Toxicity in C57BL/6 mouse assessed as serum AST level at 200 mg/kg, ip measured after 24 hrs (reference value: 234.682 U/L); format: organism-based; settings: in vivo
# [22] = Toxicity in C57BL/6 mouse assessed as serum GGT level at 200 mg/kg, ip measured after 24 hrs (reference value: 1.62 U/L); format: organism-based; settings: in vivo
# [23] = Toxicity in C57BL/6 mouse assessed as serum ALP level at 200 mg/kg, ip measured after 24 hrs (reference value: 250.654 U/L); format: organism-based; settings: in vivo
# [24] = Toxicity in C57BL/6 mouse assessed as serum ALB level at 200 mg/kg, ip measured after 24 hrs (reference value: 40.01 g/L); format: organism-based; settings: in vivo
smiles,measurement,setting,value
COc1cc2ncnc(Nc3ccc(F)c(Cl)c3)c2cc1OCCOCCOCCOCCNC(=O)COc1c(Br)cc(/C=C2\C(=O)Nc3ccc(I)cc32)cc1Br,IC50,NCI-H3255,3000 nM
same,IC50,NCI-H1975,> 10000 nM
same,DC50,[1],980 nM
same,Activity,[2],Active
same,Activity,[3],Active
same,Activity,[4],Active
same,Activity,[5],Active
same,Activity,[6],Active
same,Activity,[7],inactive
same,Activity,[8],inactive
same,inhibition,HCC827,Dose-Dependent Effect
same,"remaining at 2.667 h, 1 mg/ml",[9],90%
same,half-life,[10],18.4 min
same,inhibition in vivo at 5 mg/kg,PC-9 [11],35%
same,inhibition in vivo at 10 mg/kg,PC-9 [12],51.6%
same,Activity,[13],Non-Toxic
same,Activity,[14],Non-Toxic
same,Activity,[15],185.73 U/L
same,Activity,[16],35.48 g/L
same,Activity,[17],2.53 µmol/L
same,Activity,[18],19.63 mmol/L
same,Activity,[19],27.8 µmol/L
same,Activity,[20],43.302 U/L
same,Activity,[21],159.506 U/L
same,Activity,[22],1.712 U/L
same,Activity,[23],177.394 U/L
same,Activity,[24],40.048 g/L

# Source: ChEMBL document CHEMBL5500346, “Targeting EGFR degradation by autophagosome degraders” (Eur J Med Chem, 2024)
